Experimental data as given in patent publication US8188152B2, “2-aminoalcohols for the treatment of neurodegenerative diseases” (Biocopea Limited, priority 2005, dated 2012).

Test system: SJL mouse EAE model of multiple sclerosis
Test: Experimental Allergic Encephalomyelitis (EAE) in SJL mice, clinical neurological scoring 0-5
Type: in vivo
Details: 10 mg/kg orally once a day
Procedure: Experimental Allergic Encephalomyelitis (EAE) is a central nervous system, autoimmune, demyleinating disease, that mimics many aspects of multiple sclerosis. Acute models of murine EAE are often utilised to evaluate the efficacy of therapeutics.
Acclimatised SJL mice were sensitised by a subcutaneous injection proteolipid protein (PLP) in Freund's complete adjuvant (CFA) acting as an encephalitogenic inoculum. Innoculum was administered subcutaneously at a concentration of 125 μg PLP/300 μg CFA in a volume of 200 μl. 48 hours later, an intraperitoneal injection of pertussis toxin (PTX) was administered at a dose of 20 μg/kg, to increase blood-brain barrier permeability.
(+)-Erythro-2-tert-butylamino-1-(3-chlorophenyl)-propan-1-ol hydrochloride and copoxane were administered from the first day of the experiment and once a day until the end. (+)-Erythro-2-tert-butylamino-1-(3-chlorophenyl)-propan-1-ol hydrochloride was administered orally at a dose of 10 mg/kg. Copaxone was administered intraperitoneally at a dose of 25 mg/kg. Throughout the experiment, careful clinical examinations and body weights were taken to observe the well being of the animal. In addition, clinical scoring of the EAE symptoms was taken to the classical 0-5 scale, as follows: • 0 Normal reactions • 1 Tail weakness • 2 Hind leg weakness and paresis • 3 Hind leg paralysis • 4 Quadriplegia • 5 Moribund/death Results

In the case of `C[C@H](NC(C)(C)C)[C@H](O)c1cccc(Cl)c1.Cl` [(+)-erythro-2-tert-butylamino-1-(3-chlorophenyl)-propan-1-ol hydrochloride], the “improvement in symptoms / disease resolution” value (compared to the vehicle) is reported as “more rapid improvement in symptoms” and the maximal neurologic score (versus vehicle, 0-5 scale) is reported as “no improvement”.
